Literature values as cited in article PMC10488193, “Evaluation of the Chemical Stability, Membrane Permeability and Antiproliferative Activity of Cyclic Diarylheptanoids from European Hornbeam (Carpinus betulus L.)” (International Journal of Molecular Sciences, 2023).

System: lipid peroxidation in human plasma
Design: method as in PMID 28520428
Conditions: cited from earlier work

O=C1CCc2ccc(O)c(c2)-c2cc(ccc2O)C[C@H](O)[C@H](O)[C@H]1O [Compound 2, carpinontriol B]
lipid peroxidation induced by H2O2 (in words): inhibited lipid peroxidation
